Laboratory results published in patent US20230242947A1, “GENETICALLY ENGINEERED RHODOPSEUDOMONAS PALUSTRIS” (priority 2021, published 2023).
Where two headings read alike, the source gives them in different places.

How the values were obtained:
[1] = test system: WT TIE-1 with an empty vector (pRhokS-2); type: cell-based, Rhodopseudomonas palustris TIE-1; conditions: for Doubling time: WT with pAB423; for effect on TIE-1 growth of the amount produced in the study: amounts produced by the engineered strains (n-butanol up to 4.98 mg/L; acetone up to about 290 mg/L)
Experimental: Toxicity Study. WT TIE-1 with an empty vector (pRhokS-2) was used to test the tolerance of TIE-1 for acetone and n-butanol. To test the tolerance, 0, 0.25, 0.5, 1, or 2% n-butanol (v/v), or 0, 0.1, 0.25, 0.5, 1, or 2% acetone (v/v), was added to FW media with acetate (10 mM). Growth was monitored by recording OD660 overtime.

[2] = test system: phiC31 integrase (Streptomyces phage phiC31?); assay: cell_activity

Q: Which results are given for `CCCCO` [n-butanol]?
A: Doubling time ([1]; n-butanol 2025 mg/L in media): 20.091 h; Doubling time ([1]; n-butanol 4050 mg/L in media): No growth; Doubling time ([1]; n-butanol 8100 mg/L in media): No growth; Doubling time ([1]; n-butanol 16200 mg/L in media): No growth; effect on TIE-1 growth of the amount produced in the study [1]: does not limit the growth of TIE-1; lowest inhibitory concentration of n-butanol for TIE-1 ([1]; toxicity assay, FW media with acetate (10 mM)): 4050 mg/L

Q: What does the source list for `CC(C)=O` [acetone]?
A: Doubling time ([1]; acetone 1960 mg/L in media): 6.74 h; Doubling time ([1]; acetone 3920 mg/L in media): 5.82 h; Doubling time ([1]; acetone 7840 mg/L in media): 5.56 h; Doubling time ([1]; acetone 15680 mg/L in media): 4.88 h; effect on TIE-1 growth of the amount produced in the study [1]: does not limit TIE-1's growth

Q: With “phiC31 attP site (on suicide plasmid pWB081/pWB088)” as the compound, how does the activity ([2]; attP donor plasmid partner of attB, same integration assay, about 80% with inducible plasmid system) read?
A: 100%

Q: For “phiC31 attB site (in TIE-1 genome at glmUSX-recG locus)”, which activity ([2]; attB x attP integration of mcherry in R. palustris TIE-1, editing efficiency 100% for genome-based system and constitutive plasmid system, about 80% for …) is on record?
A: 100%
